Experimental data published in PMC3892053, “Pharmacokinetic/pharmacodynamic modeling for the determination of a cimicoxib dosing regimen in the dog” (BMC Veterinary Research, 2013).
Where two headings read alike, the source gives them in different places.

Assays:
[1] = Plasma pharmacokinetics after single intravenous administration in beagle dogs; assay type: in vivo, dog; conditions: mean ± SD; for HL (plasma half-life): IV 2 mg/kg; for AUC / clearance / half-life / Vd: beagle, dog, plasma, iv, 2 mg/kg; for clearance: read-out: CL (plasma clearance) (converted); for half-life: read-out: HL (plasma half-life) (converted); for Vd: read-out: V (volume of distribution)
Protocol: To verify this hypothesis, a PK investigation of cimicoxib following IV administration (bolus, 2 mg/kg) was performed on the 12 dogs at least 2 months after the completion of the PK/PD study. Blood samples were obtained from the jugular vein by direct puncture at time 0 (control just before the IV administration) and then 2, 15, 30, 60, 90 min. and 2, 3, 4, 6, 9, 12, 24, 30 and 48 hours after the test article administration.
Plasma samples were analyzed by a High Performance Liquid Chromatography (HPLC) method using ultraviolet (UV) detection. Briefly, an internal standard (UR-8877) and cimicoxib (UR-8880) were extracted from plasma by a solid liquid (methanol) extraction process using HLB Oasis cartridges (Waters). The extraction yield was about 90%. The HPLC apparatus consists of a pump system equipped with an automatic injector and an UV detector (242 nm). […] The mobile phase was a mixture of 0.65 L of ultra-pure water and 0.35 L of acetonitrile which was delivered at a flow rate of 1 mL per min. Under these conditions, cimicoxib (UR-8880) and the internal standard (UR-8877) were eluted at retention times of 6 to 7 min and 10 to 11 min, respectively. The method was linear over the calibration range of 0.01 to 5 μg/mL using a linear model weighted by 1/X^2. Within-day and day-to-day coefficients of variation were less than 9% and the accuracy ranged from 94 to 103%, indicating an appropriate precision and accuracy for the analytical method. The lack of interference from endogenous compounds was verified on blank plasma from untreated dogs, establishing the specificity of the method. The validated limit of quantification was 0.01 μg/mL.
For the IV study, a non-compartmental analysis was used to determined PK parameters.

[2] = test system: kaolin-induced paw inflammation; assay: Kaolin paw inflammation model, observed antipyretic, analgesic and anti-inflammatory effects; assay type: in vivo, dog; conditions: oral 2 mg/kg; for Maximum effect, analgesia (paw withdrawal time to heat stimulus): 100% = control without inflammation, 2 mg/kg; for Maximum effect, body temperature: % improvement (100% = return to control); for Total duration of the effect, body temperature: time effects superior to placebo
Text: The 12 dogs were regularly trained to get accustomed to experimental and measurements conditions for at least one month before the beginning of the experiment. Furthermore, all the investigators involved received a special training for endpoints measurements. The paw inflammation model used was the kaolin model (1.55 g of Kaolin aseptically injected in the skin under general anesthesia, [15]). The measured endpoints used to evaluate the antipyretic, analgesic and anti-inflammatory effects of the NSAID were the body temperature, the paw circumference, the time to perform a creeping test under a tunnel, the lameness score, the vertical force of the paw on force plates (normalized to the dog’s body weight), the thermal pain threshold and the plantar skin temperature. For body temperature a single measurement was obtained at each time using an electronic thermometer. Paw circumference duplicate measures per time point was done just above the pad using a measuring tape (DMC, Colmar, France). Skin plantar temperature was measured (in degrees Celsius) using an infrared thermometer (Raynger M. Raytek, Fisher Bioblock Scientific - Illkirch – France) at a reference site on the plantar face of the paw, at six different times for each day and measures were performed in triplicate. Data used was the average of the three measurements performed at each time point. Creeping time was measured (in seconds) in a tunnel 6.38 m long, using a stopwatch (digital stopwatch) in triplicate for each time point and creeping speed (m/s) was used as the final measurement for this endpoint. Lameness score was assessed using a numerical rating scale as developed by Giraudel et al.. Vertical normalized force i.e. the maximal vertical force applied on the ground by a hind limb was measured with force plates (SATEL Veto; Patrick Savet, Blagnac, France); for each measurement time, three measures were recorded, the mean values were normalized to the dog’s body weight (Fmax/b.wt., kg/kg) and used in the data analyses. Pain was assessed using a hind paw thermal escape model. The model consisted of exposing the hind limb to a light beam delivered by a Hargreaves apparatus (model 390; IITC Inc., Woodlands Hills, CA). A heat intensity corresponding to 15% of the peak heating value of 150 W was selected. The paw withdrawal time (in seconds) was measured. For each trial, three measures were recorded per measurement time, and the mean of the three measures was used in the data analysis.
The study was conducted according to a classical 2×2 crossover design. Briefly, in period one, half of the dog (3 males and 3 females), received a single oral dose of cimicoxib (approximately 2 mg/kg, one 20 mg capsules – Vetoquinol Lure france) 26.5 h after the induction of kaolin inflammation on the left paw; the other half dogs received a placebo treatment at the same time. In period 2, treatments were crossed over for each dog and inflammation was induced on the right paw. A wash-out delay of at least 5 weeks was applied between the two periods. The treatment (cimicoxib or placebo) was blinded to the investigators.
At least three days before the induction of kaolin inflammation, the PD endpoints were measured twice on the same day to generate negative control values. These endpoints were also measured at 23.5 and 25.5 h after the induction of the inflammation (i.e. before the treatment) to generate positive control values. Subsequently, the PD endpoints were measured at 2, 4, 9, 15 hours after administration (measures on all dogs) and at 22 h and 27 h after administration depending on the presence of further cimicoxib activity.
For PD analysis, a percentage of improvement was calculated for all endpoints (except for the lameness score) following Equation 2:
(2) %improvement=T^+-M/T^+-T^-*100 […]

[3] = test system: peri-operative pain; pain and inflammation associated with osteoarthritis; conditions: inferiority limit 20%, cited from earlier work
[4] = design: method as in Vetoquinol, unpublished results; conditions: non-linear disposition, ref Vetoquinol, unpublished results, cited from earlier work
[5] = the two groups of dogs together

SMILES: COc1ccc(-c2c(Cl)ncn2-c2ccc(S(N)(=O)=O)cc2)cc1F [cimicoxib]
- HL (plasma half-life) ([1]; Extensive metabolizers (n = 8)): 2.72 ± 0.858 h
- HL (plasma half-life) ([1]; Poor metabolizers (n = 4)): 5.63 ± 0.727 h
- AUC ([1]; Extensive metabolizers (n = 8)): 7200 ± 1810 ng·h/mL
- clearance ([1]; Extensive metabolizers (n = 8)): 5.17 mL/min/kg
- half-life ([1]; Extensive metabolizers (n = 8)): 2.7 ± 0.9 h
- Vd ([1]; Extensive metabolizers (n = 8)): 1.12 ± 0.203 L/kg
- AUC ([1]; Poor metabolizers (n = 4)): 19200 ± 3150 ng·h/mL
- clearance ([1]; Poor metabolizers (n = 4)): 1.83 mL/min/kg
- half-life ([1]; Poor metabolizers (n = 4)): 5.6 ± 1.7 h
- Vd ([1]; Poor metabolizers (n = 4)): 0.89 ± 0.133 L/kg
- Duration of the maximal effect, analgesia ([2]; EM dogs): 7 h (from 2.9 to 9.8 h)
- Duration of the maximal effect, body temperature ([2]; EM dogs): 7 h (from 2.1 to 9.1 h)
- Duration of the maximal effect, creeping speed ([2]; EM dogs): 7 h (from 2.2 to 9.2 h)
- Duration of the maximal effect, paw circumference ([2]; EM dogs): 9 h (from 2.2 to 11.2 h)
- Duration of the maximal effect, skin plantar temperature ([2]; EM dogs): 7 h (from 2.3 to 9.3 h)
- Duration of the maximal effect, vertical normalized force ([2]; EM dogs): 6.9 h (from 2.6 to 9.5 h)
- Total duration of the effect, creeping speed ([2]; EM dogs): 15 h
- Total duration of the effect, paw circumference ([2]; EM dogs): 15 h
- Total duration of the effect, skin plantar temperature ([2]; EM dogs): 13 h
- Total duration of the effect, vertical normalized force ([2]; EM dogs): 16 h
- Maximum effect, analgesia (paw withdrawal time to heat stimulus) ([2]; EM dogs): 232 ± 45%
- Maximum effect, creeping speed ([2]; EM dogs, % improvement): 76 ± 9%
- Maximum effect, paw circumference ([2]; EM dogs, % improvement): 14 ± 2%
- Maximum effect, skin plantar temperature ([2]; EM dogs, % improvement): 38 ± 6%
- Maximum effect, vertical normalized force ([2]; EM dogs, % improvement): 68 ± 7%
- Maximum effect, body temperature ([2]; EM dogs): 84 ± 8%
- Total duration of the effect, body temperature ([2]; EM dogs): 13 h
- Duration of the maximal effect, analgesia ([2]; PM dogs): 8.8 h (from 2.9 to 11.8 h)
- Duration of the maximal effect, body temperature ([2]; PM dogs): 19.6 h (from 2.1 to 21.7)
- Duration of the maximal effect, clinical lameness score ([2]; PM dogs): 10.9 h (from 4.8 to 15.7 h)
- Duration of the maximal effect, creeping speed ([2]; PM dogs): 11.1 h (from 4.2 to 15.3 h)
- Duration of the maximal effect, paw circumference ([2]; PM dogs): 7 h (from 4.2 to 11.2 h)
- Duration of the maximal effect, vertical normalized force ([2]; PM dogs): 11.1 h (from 4.5 to 15.5 h)
- Maximum effect, skin plantar temperature ([2]; PM dogs): No plateau observed
- Total duration of the effect, analgesia ([2]; PM dogs): 23 h
- Total duration of the effect, creeping speed ([2]; PM dogs): 25 h
- Total duration of the effect, paw circumference ([2]; PM dogs): 20 h
- Total duration of the effect, skin plantar temperature ([2]; PM dogs): 22 h
- Total duration of the effect, vertical normalized force ([2]; PM dogs): 28 h
- Maximum effect, analgesia (paw withdrawal time to heat stimulus) ([2]; PM dogs): 152 ± 53%
- Maximum effect, creeping speed ([2]; PM dogs, % improvement): 77 ± 7%
- Maximum effect, paw circumference ([2]; PM dogs, % improvement): 15 ± 3%
- Maximum effect, vertical normalized force ([2]; PM dogs, % improvement): 67 ± 6%
- Maximum effect, body temperature ([2]; PM dogs): 87 ± 9%
- Total duration of the effect, body temperature ([2]; PM dogs): 25 h
- overall maximal effect, body temperature [2, 5]: 86%
- overall maximal effect, creeping speed [2, 5]: 76%
- comparison against firocoxib, primary efficacy endpoint ([3]; pain and inflammation associated with osteoarthritis): non-inferiority
- comparison to carprofen on pain during the first 24 hours (composite pain clinical score) ([3]; peri-operative pain, orthopaedic or soft tissue surgery, carprofen 4 mg/kg per day): non-inferiority
- dose of the simulations to which observed plasma concentrations correspond ([4]; oral dose of 1 mg/kg): 1.46 mg/kg
- dose of the simulations to which observed plasma concentrations correspond ([4]; oral dose of 4 mg/kg): 3.18 mg/kg
